Test results reported in PubChem BioAssay AID743305 (Broad Institute, 2014).
Values joined by “and” are separate entries in the source; they are usually repeats but may differ in a detail not shown here. Identical values can stand only once. Active and inactive are the calls of the source. No rule for the calls is given here.

Tests used:
[1] = test system: Cryptococcus neoformans cell lysis, plate reader; assay: Cryptococcus neoformans cell lysis induction, dose response, plate reader, dry powder, set 2 (AID 743305)
[2] = as above; conditions: Cryptococcus neoformans cell lysis, plate reader; at 35 µM (top of the series)

Structure (SMILES) | AC50 [1] | activity change, negative = lysis [2]
Cc1cc2ncn(CCOc3ccc4c(c3)CCC4)c2cc1C | 3.63 µM | 
Cc1ccc2c(c1)[nH]c(=S)n2CCOc1ccccc1 | 7.79 µM | 
Cc1ccc(C(C)C)c(OCCn2c(CO)nc3ccccc32)c1 | > 70 µM (inactive) | 
Fc1ccc2c(c1)[nH]c(=S)n2CCOc1ccccc1 | 12.4 µM and 15.5 µM | 
CC(C)Oc1ccc(OCCn2c(=S)[nH]c3ccccc32)cc1 | 12.1 µM | 
Cc1ccc(OCCn2cnc3cc(C)c(C)cc32)cc1 | 5.54 µM | 
Fc1ccc(OCCn2c(=S)[nH]c3ccccc32)cc1 | 36.6 µM | 
NCC(=O)Nc1ccc(-n2nc(C(F)(F)F)cc2-c2ccc3c(ccc4ccccc43)c2)cc1 | 10.7 µM | 
Clc1ccc(OCCn2cnc3ccccc32)cc1 | 29 µM | 
S=c1[nH]c2cccc(Cl)c2n1CCOc1ccccc1 | 2.95 µM | 
CC(C)(C)c1ccc(OCCn2cnc3ccccc32)cc1 | 11 µM | 
Cc1cc2ncn(CCOc3ccccc3C)c2cc1C | 8.4 µM | 
Cc1ccc(C(C)C)c(OCCn2c(=O)[nH]c3ccccc32)c1 | > 70 µM (inactive) | 
CC(C)c1ccccc1NCCn1c(=S)[nH]c2ccccc21 | > 70 µM (inactive) | 
c1ccc2c(c1)ncn2CCOc1ccc2c(c1)CCC2 | 3.3 µM | 
c1ccc(COc2ccc(OCCn3cnc4ccccc43)cc2)cc1 | 24.4 µM | 
CCc1nc2ccccc2n1CCOc1ccccc1 |  | -12.5% (inactive)
CSc1nc2ccccc2n1CCOc1ccccc1 | 29.5 µM | 
Cc1cccc(OCCn2c(=S)[nH]c3ccccc32)c1 | 8.47 µM | 
Cc1cccc(OCCn2cnc3ccccc32)c1 | 34.1 µM | 
CC(C)(C)c1ccc(OCCn2cnc3ccccc32)c(Cl)c1 | 10.1 µM | 
CC(C)Oc1ccc(OCCn2cnc3ccccc32)cc1 | 24.3 µM | 
CCCc1nc2ccccc2n1CCOc1ccccc1 | 35.7 µM | 
Cc1cc2ncn(CCOc3ccccc3)c2cc1C | 14.9 µM | 

Structure (SMILES) | AC50 [1] | activity change, negative = lysis [2]
Fc1cccc2c1[nH]c(=S)n2CCOc1ccccc1 | 13.9 µM | 
Cc1cccc(OCCn2c(=S)[nH]c3ccc(C(F)(F)F)cc32)c1 | > 70 µM (inactive) | 
Cc1cccc(OCCn2c(=S)[nH]c3cc(F)ccc32)c1 | 6.33 µM and 6 µM | 
CCSc1nc2ccccc2n1CCOc1ccccc1 | 35 µM | 
COc1ccc(OCCn2cnc3ccccc32)cc1 |  | -13.3% (inactive)
S=c1[nH]c2cc(Cl)ccc2n1CCOc1ccccc1 | 36 µM | 
CCCCc1nc2ccccc2n1CCOc1ccccc1 | 24.3 µM | 
CC(C)Oc1cccc(OCCn2cnc3ccccc32)c1 | 13.3 µM | 
FC(F)(F)c1cccc(OCCn2cnc3ccccc32)c1 | 29.7 µM | 
COc1ccccc1OCCn1c(=S)[nH]c2ccccc21 |  | -5.77% (inactive)
CSc1nc2ccccc2n1CCOc1ccc(C)cc1 | 17.7 µM | 
O=S(=O)(c1ccc(OCCn2cnc3ccccc32)cc1)N1CCOCC1 |  | -16.9% (inactive)
Cc1ccc(C(C)C)c(OCCn2c(N)nc3ccccc32)c1 | 21.9 µM | 
COCc1nc2ccccc2n1CCOc1ccc(C(C)(C)C)cc1 | 28.6 µM | 
Clc1ccc(OCCn2cnc3ccccc32)c(Cl)c1 | 11.8 µM | 
Cc1cccc(OCCn2c(=S)[nH]c3c(F)cccc32)c1 | 8.18 µM and 7.2 µM | 
Cc1ccc(C(C)C)c(OCCn2c(=S)[nH]c3ccccc32)c1 | 3.96 µM | 
c1ccc(-c2ccc(OCCn3cnc4ccccc43)cc2)cc1 |  | -7.29% (inactive)
Cc1ccc(OCCn2cnc3ccccc32)c(C(C)C)c1 | 32.8 µM | 
Cc1ccc(OCCn2cnc3ccccc32)c(C)c1 | 14.6 µM | 
Cc1ccc(C(C)C)c(OCCn2c(NC#N)nc3ccccc32)c1 | > 70 µM (inactive) | 
CS(=O)(=O)c1ccc(OCCn2cnc3ccccc32)cc1 |  | -6.3% (inactive)
CC(C)c1ccccc1OCCn1c(=S)[nH]c2ccccc21 | 4.7 µM | 
OCc1nc2ccccc2n1CCOc1ccccc1 |  | -11.6% (inactive)
